Reference: patent US20040166079A1, “N-Lauroyl amino acid composition for slimming the human body” (priority 2003, published 2004)
Each block holds one molecule with its values, some of them ahead of it.

Experiments:
[1] = target: T1, human recombinant MMP-9 (Homo sapiens, UniProt P14780); experiment: Measurement of the activity of metalloproteinase MMP-9 (DQ-gelatin fluorescence); assay type: biochemical; settings: incubation concentration 0.0018 % DE; relative to the control
T1 construct: purchased CALBIOCHEM PF024
Protocol: (§1) The objective of this test is to evaluate the inhibitory capacity of a product on the enzymatic activity of MMP-2 and MMP-9. This test is based on an enzymatic reaction between purified MMP-2 or MMP-9 and a specific substrate containing a chromophore. The degradation of the chromogenic substrate by the enzyme leads to the production of fluorescence monitored by fluorimetry.
(§2) (i)—A human recombinant MMP-9 (CALBIOCHEM, PF024) is incubated, at 0.05 μg/ml, in the presence of the product and the chromogenic substrate, DQ-gelatin conjugated with fluorescein (MOLECULAR PROBE, D12054) at 10 μg/ml. The reaction mixture is incubated overnight at room temperature, protected from light. The quantity of DQ-gelatin degraded is measured by fluorescence (Ex: 355 nm; Em: 460 nm).
(§3) The reactivity of the enzymatic system is systematically monitored for the measurement of the effect of a metalloproteinase inhibitor, 1,10-phenanthroline. The results are presented in the following table, as a percentage inhibition of the enzymatic activity of MMP-2 and MMP-9 relative to the control.

[2] = target: T2, human recombinant MMP-2 (Homo sapiens, UniProt P08253); experiment: Measurement of the activity of metalloproteinase MMP-2 (DQ-gelatin fluorescence); assay type: biochemical; settings: incubation concentration 0.0018 % DE; relative to the control
T2 construct: purchased CALBIOCHEM PF023
T2 sequence (P08253 110-660): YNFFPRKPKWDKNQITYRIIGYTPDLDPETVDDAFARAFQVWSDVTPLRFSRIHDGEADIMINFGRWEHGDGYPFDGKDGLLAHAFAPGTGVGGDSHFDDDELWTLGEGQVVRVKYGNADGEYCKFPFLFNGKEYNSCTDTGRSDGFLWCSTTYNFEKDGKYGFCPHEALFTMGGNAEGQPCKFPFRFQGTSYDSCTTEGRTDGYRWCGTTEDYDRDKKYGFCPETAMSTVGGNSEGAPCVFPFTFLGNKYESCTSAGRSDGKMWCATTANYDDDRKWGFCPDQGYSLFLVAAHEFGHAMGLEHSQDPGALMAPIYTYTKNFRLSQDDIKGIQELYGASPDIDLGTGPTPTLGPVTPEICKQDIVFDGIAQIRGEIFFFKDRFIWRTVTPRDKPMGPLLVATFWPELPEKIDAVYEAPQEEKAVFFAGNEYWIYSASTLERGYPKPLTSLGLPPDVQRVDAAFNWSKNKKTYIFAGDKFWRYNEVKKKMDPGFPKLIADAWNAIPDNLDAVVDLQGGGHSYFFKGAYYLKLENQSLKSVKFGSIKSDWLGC
Protocol: as §1
as §2, with “(ii)—A” for “(i)—A”, “MMP-2” for “MMP-9”, “PF023)” for “PF024)”, “0.1” for “0.05”
as §3

[3] = target: T3, α2-adrenergic receptors (Homo sapiens, UniProt P08913); experiment: Involvement of α2-adrenergic receptors in lipolytic activity: fatty acid assay in human adipocytes with brimonidine; assay type: cell-based
T3 construct: adrenergic receptors found at the surface of the adipocytes; endogenous in cells; host or cells: human adipocytes from subcutaneous abdominal adipose tissue of women
T3 sequence (P08913 1-465): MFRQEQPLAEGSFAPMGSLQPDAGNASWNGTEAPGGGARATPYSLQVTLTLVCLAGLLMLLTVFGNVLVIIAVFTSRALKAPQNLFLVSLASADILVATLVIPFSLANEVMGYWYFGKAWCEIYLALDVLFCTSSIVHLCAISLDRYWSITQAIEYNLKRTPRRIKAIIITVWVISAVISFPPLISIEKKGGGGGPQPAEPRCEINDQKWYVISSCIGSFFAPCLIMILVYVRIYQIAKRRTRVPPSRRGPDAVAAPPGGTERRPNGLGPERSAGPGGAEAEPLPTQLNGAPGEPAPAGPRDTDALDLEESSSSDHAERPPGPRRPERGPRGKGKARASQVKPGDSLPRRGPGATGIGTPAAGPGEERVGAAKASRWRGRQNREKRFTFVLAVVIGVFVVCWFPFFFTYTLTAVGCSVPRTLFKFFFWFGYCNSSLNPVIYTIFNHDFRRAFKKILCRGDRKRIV
From the text: It involves determining, in an “in vitro” model of isolated human adipocytes, the involvement of the α2- and/or β-adrenergic receptors on the lipolytic activity of the test product. Lipolysis is indeed under the control of the adrenergic receptors found at the surface of the adipocytes. Two types of receptors coexist:
A lipolytic product can call into play these receptors either by stimulating the β-adrenergic receptors (agonist), or by inhibiting the α2-adrenergic receptors (antagonist). The method described consists in incubating the product in the presence of human adipocytes in suspension, followed by the measurement of the lipolytic activity by assaying fatty acids. The adipocytes are incubated in the presence of pharmacological agents, α2-adrenergic agonists or β-adrenergic antagonists, known to inhibit lipolysis. The trial consists in studying the effect of the product on the inhibition of lipolysis induced by these pharmacological agents.
The test is carried out using human adipocytes isolated and prepared as a cellular suspension. The adipocytes are isolated from the subcutaneous abdominal adipose tissue recovered during plastic surgery operations (abdominal plastic surgery operations) performed on women. The cells are isolated from fresh tissue. To isolate the cells, the adipose tissue is isolated and dissociated by the action of a collagenase (SIGMA™, 1 mg/ml, 30 minutes at 37° C., gentle stirring). Collagenase digests the connective tissue present in the adipose tissue. […]
The product is incubated with the cells in suspension for two hours at 37° C. (250 μl of product+250 μl of adipocyte suspension). in the presence of an α2-adrenergic agonist: brimonidine at 10^−9 M (concentration previously determined to inhibit basal lipolysis by about 50%), and The supernatant media are collected. […]

[4] = target: T4, hyaluronidase (SIGMA), purified from bovine testicles (Bos taurus, UniProt Q2YDK3); experiment: Measurement of the activity of hyaluronidase (purified enzyme); assay type: biochemical; settings: hyaluronidase test, 60 minutes at 37° C.
T4 construct: purified from bovine testicles; purchased SIGMA; host or cells: bovine testicles
T4 sequence (Q2YDK3 36-553): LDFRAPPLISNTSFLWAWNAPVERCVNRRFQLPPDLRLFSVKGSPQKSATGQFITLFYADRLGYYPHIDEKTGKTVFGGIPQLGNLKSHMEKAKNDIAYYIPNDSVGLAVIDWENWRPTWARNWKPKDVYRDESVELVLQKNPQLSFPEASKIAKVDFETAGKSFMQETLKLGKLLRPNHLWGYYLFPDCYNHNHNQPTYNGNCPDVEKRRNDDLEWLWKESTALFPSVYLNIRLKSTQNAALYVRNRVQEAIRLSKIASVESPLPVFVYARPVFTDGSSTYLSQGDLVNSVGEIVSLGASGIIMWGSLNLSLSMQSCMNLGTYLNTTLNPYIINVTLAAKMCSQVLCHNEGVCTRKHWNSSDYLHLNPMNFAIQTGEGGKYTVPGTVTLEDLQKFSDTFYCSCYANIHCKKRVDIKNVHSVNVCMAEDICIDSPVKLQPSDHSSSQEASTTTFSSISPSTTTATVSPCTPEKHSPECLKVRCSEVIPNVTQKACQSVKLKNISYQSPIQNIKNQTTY
Protocol: The objective of this test is to measure the activity of hyaluronidase. This enzyme, which is naturally found in the skin, degrades hyaluronic acid. The study is carried out in vitro on the purified enzyme.
The hyaluronidase (SIGMA), purified from bovine testicles, is incubated at 0.01 U/ml in the presence of hyaluronic acid at 0.02 mg/ml, with or without test product. The incubation is carried out for 60 minutes at 37° C.
Evaluation of the effects: After the incubation, the hyaluronic acid not degraded by the enzyme is precipitated by a 24 mM sodium acetate/79. mM acetic acid mixture (10 minutes, room temperature). The precipitate is measured by spectrophotometry at 590 nm.
The effect of the test products is compared to that observed in the presence of dipotassium glycyrrhizinate, a reference hyaluronidase inhibitor.

[5] = test system: β-adrenergic receptors; experiment: Involvement of β-adrenergic receptors in lipolytic activity: fatty acid assay in human adipocytes with propranolol; assay type: cell-based
Protocol: The supernatant media are collected. The nonesterified fatty acids are assayed by spectrophotometry with the aid of a commercial kit in these supernatant media (NEFA C kit, WAKO). The assay is performed against a fatty acid calibration series.
for the inhibition induced by the β-adrenergic antagonist, by the use of a β-adrenergic agonist, isoprenaline.

[6] = test system: human adipocytes; experiment: Assay of the free fatty acids (lipolytic activity) in isolated human adipocytes in suspension; assay type: cell-based; settings: for Free fatty acid concentration: 2 h at 37° C., mean of five assays
From the text: Hydrolysis of the triglycerides to nonesterified fatty acids and glycerol is called lipolysis. Triglycerides are stored in the adipocytes and constitute the fat reserve. For this reserve to diminish, which is the desired aim when slimming products are used, the triglycerides should be hydrolysed in the form of fatty acids, which in their case can be removed from the cell. Hydrolysis of the triglycerides calls into play a hormone-dependent lipase which must be phosphorylated in order to be active. The phosphorylation step uses a kinase and cAMP. An increase in the cAMP content of the adipocytes is necessary for promoting the activity of the lipase and therefore the lipolysis. The method described consists in incubating the products in the presence of human adipocytes in suspension, followed by […].
The test is carried out using human adipocytes isolated and prepared as a cellular suspension. The adipocytes are isolated from the subcutaneous abdominal adipose tissue recovered during plastic surgery operations (abdominal plastic surgery operations) performed on women. The cells are isolated from fresh tissue. The adipose tissue is isolated and dissociated by the action of a collagenase (SIGMA™, 1 mg/ml, 30 minutes at 37° C., gentle stirring). Collagenase digests the connective tissue present in the adipose tissue. After digestion, the cells are filtered and washed in an appropriate culture medium containing MEM medium free of phenol red, free of glutamine (SIGMA)+2.2 mg/ml of sodium bicarbonate (GIBCO)+50 IU of penicillin (BIOWHITTAKER™)+50 μg/ml of streptomycin (BIOWHITTAKER™)+1% (v/v) of L-glutamine (BIOWHITTAKER™)+0.5% of lipid-free serum albumin (SIGMA™). The adipocyte suspension is used immediately after its preparation.
The test products are diluted in the adipocyte culture medium. They are incubated with the cells in suspension for two hours at 37° C. (250 μl of product+250 μl of adipocyte suspension).
After the incubation, the cell lysis is checked visually by the presence of a lipid layer at the surface of the cellular suspension. The supernatant media are collected. The free fatty acids are assayed by spectrophotometry using a commercial kit (NEFA™ C kit, WAKO), with reference to a fatty acid calibration series. The lypolytic activity of the products is evaluated relative to a control group incubated in the presence of adipocytes and in the absence of product. […] Five assays are performed for each of the test products which are as follows:
This assay is repeated by carrying out new assays at different concentrations.

[7] = incubation concentration 0.0001 wt % DE
[8] = incubation concentration 0.0010 wt % DE

T1 sequence (P14780 107-707 limits assumed): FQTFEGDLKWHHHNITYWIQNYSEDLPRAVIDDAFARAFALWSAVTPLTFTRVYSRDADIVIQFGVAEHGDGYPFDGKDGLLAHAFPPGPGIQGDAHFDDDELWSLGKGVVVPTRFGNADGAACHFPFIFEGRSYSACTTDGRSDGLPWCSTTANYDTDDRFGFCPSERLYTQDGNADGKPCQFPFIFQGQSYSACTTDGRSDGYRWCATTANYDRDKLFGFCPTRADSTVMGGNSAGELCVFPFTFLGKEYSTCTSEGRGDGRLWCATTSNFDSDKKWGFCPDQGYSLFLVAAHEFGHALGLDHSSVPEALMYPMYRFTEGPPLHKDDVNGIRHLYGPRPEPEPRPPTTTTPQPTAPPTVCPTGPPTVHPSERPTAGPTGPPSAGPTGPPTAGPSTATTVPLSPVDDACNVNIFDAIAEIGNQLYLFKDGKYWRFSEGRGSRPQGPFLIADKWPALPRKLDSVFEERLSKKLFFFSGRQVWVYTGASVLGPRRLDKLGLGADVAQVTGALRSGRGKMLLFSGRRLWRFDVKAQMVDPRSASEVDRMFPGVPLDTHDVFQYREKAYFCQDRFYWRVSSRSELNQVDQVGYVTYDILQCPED

SMILES: c1cnc2c(c1)ccc1cccnc12 [1,10-Phenanthroline, 1,10-phenanthroline]
MMP-9 inhibiting effect [1]: 75% | MMP-2 inhibiting effect [2]: 25%

SMILES: Brc1c(NC2=NCCN2)ccc2nccnc12 [Brimonidine, brimonidine]
Assay of the nonesterified fatty acids in the supernatant (% relative to the control) ([3]; 10^−9 M, alone): 0% | inhibition at 0.001 µM ([3]; read-out: inhibition of basal lipolysis): ~50%

Percentage inhibition of hyaluronidase activity ([4]; incubation concentration 0.001 % DE): 20% | Percentage inhibition of hyaluronidase activity ([4]; incubation concentration 0.1 % DE): 45%
SMILES: CC1(C)[C@@H](O[C@H]2O[C@H](C(=O)[O-])[C@@H](O)[C@H](O)[C@H]2O[C@@H]2O[C@H](C(=O)[O-])[C@@H](O)[C@H](O)[C@H]2O)CC[C@]2(C)[C@H]3C(=O)C=C4[C@@H]5C[C@@](C)(C(=O)O)CC[C@]5(C)CC[C@@]4(C)[C@]3(C)CC[C@@H]12.[K+].[K+] [Di K glycyrrhizinate, dipotassium glycyrrhizinate]

SMILES: CC(C)NCC(O)c1ccc(O)c(O)c1 (centres unmarked) [Isoprenaline, isoprenaline]
Assay of the nonesterified fatty acids in the supernatant (% relative to the control) ([5]; 10^−5 M + propanolol 10^−7 M): 170%

SMILES: CCCCCCCCCCCC(=O)N(C)CC(=O)O [N-Lauroylsarcosine]
Free fatty acid concentration [6, 7]: 26.32 ± 0.68 µM | Lipolytic activity (compared with the control = 100) [6, 7]: 228 | Free fatty acid concentration [6, 8]: 28.82 ± 6.11 µM | Lipolytic activity (compared with the control = 100) [6, 8]: 250

Assay of the nonesterified fatty acids in the supernatant (% relative to the control) ([3]; 10^−7 M + brimonidine 10^−9 M): 79%
SMILES: Cc1ccc(N(CC2=NCCN2)c2cccc(O)c2)cc1 [Phentolamine, phentolamine]

Assay of the nonesterified fatty acids in the supernatant (% relative to the control) ([5]; 10^−7 M, alone): 86% | inhibition of basal lipolysis ([5]; at 10^−7 M, concentration previously determined): about 50%
SMILES: CC(C)NCC(O)COc1cccc2ccccc12 (centres unmarked) [Propanolol, propranolol]
